In patent US20080131511A1, “Pharmaceutical Composition for Treatment of Tear and Salivary Fluid Drying” (Astellas Pharma, Inc., priority 2004, published 2008):

Tests used:
Format in all cases: in vivo, mouse (male Balb/c)
[1] = system: salivary gland; test: Salivary fluid secretion during subcutaneous continuous administration (osmotic pump); conditions: mice; for dose showing statistically significant salivary fluid secretion acceleration: cumulative quantity vs vehicle group; for Salivary fluid: AUC of secreted amount
Method: (§1) Male Balb/c mice were used in the test.
(§2) The compound A was dissolved in physiological saline to a concentration of 0.625, 1.25, 2.5, 5.0, 10 or 20 mg/200 μl, and filled each pump (Alzet mini-osmotic pump 2001D, 8 μl/h, 1 day; DURECT Corporation) with about 200 μl portions It means, that is, each pump releases at a rate of 0.025, 0.05, 0.1, 0.2, 0.4 or 0.8 mg compound A/h, respectively. About 5 mm of dorsal epidermis of a mouse anesthetized with diethyl ether was incised, the osmotic pump already filled with the compound A was subcutaneously implanted, and then the skin was stitched. Secreted amounts of salivary and tear fluid and sweating were periodically measured from just before the implantation of pump until 32 hours after the administration. The ornithine decarboxylase activity was measured 10 hours after the implantation.
(§3) Pilocarpine was dissolved in physiological saline to a concentration of 0.039, 0.078, 0.16 or 0.31 mg/200 μl, or cevimeline to a concentration of 0.16, 0.31, 0.63 or 1.3 mg/200 μl, and filled the osmotic pump (Alzet mini-osmotic pump 2001 D, 8 μl/h, 1 day; DURECT Corporation) with about 200 μl portions. It means, that is, each pump releases at a rate of 0.00156, 0.00312, 0.0064 or 0.0124 mg/h (pilocarpine) or 0.0064, 0.0124, 0.0252 or 0.05 mg/h (cevimeline). About 5 mm of dorsal epidermis of a mouse anesthetized with diethyl ether was incised, the osmotic pump already filled with pilocarpine or cevimeline was subcutaneously implanted, and then the skin was stitched. Secreted amounts of salivary and tear fluid and sweating were periodically measured from just before the implantation of pump until 32 hours after the administration. The ornithine decarboxylase activity was measured 10 hours after the implantation.
(§4) The mouth of a mouse was wiped with a cotton ball whose weight had been measured in advance, and the incremental weight was used as the amount of salivary fluid. Also at the same time, a thread for tear fluid measurement (Zone Quick; Menicon) used on the Schirmer test was inserted into the lower eyelid conjunctival sac, and the length of colored part was measured and used as the amount of tear fluid. From the measurement results, area under the secreted amount-versus-time curve (AUC) was calculated.
(§5) All of the test results were expressed as fold increases of the reactions of the drug-administered group versus those of the vehicle-administered group, and comparison between the drug-administered groups and the vehicle-administered group was carried out using Dunnett's t-test. P<0.05 was considered significant. Results

[2] = system: lacrimal gland; test: Tear fluid secretion after subcutaneous bolus administration; conditions: mice; for dose at which statistically significant acceleration of tear fluid secretion was attained: s.c. bolus
Method: as §1
(§6) The compound A was dissolved in physiological saline to a concentration of 1, 3, 10, 30 or 100 mg/5 ml, and 5 ml/kg of the drug solution was administered under the dorsal skin. Secreted amounts of salivary and tear fluid were measured just before the administration of compound A and 10, 20, 30, 40 and 50 minutes after the administration. The sweating action was measured 10 minutes after the administration. Also, the growth acceleration action was measured 6 hours after the administration.
as §6, with “Pilocarpine was dissolved” for “The compound A was dissolved”, “concentration of 0.03, 0.1, 0.3, 1, 3 or 10 mg/5 ml, or cevimeline to a concentration of 0.3, 1, 3,” for “concentration of 1, 3,”, “administration of pilocarpine or cevimeline and 10,” for “administration of compound A and 10,”
as §4, §5

[3] = system: lacrimal gland; test: Tear fluid secretion during subcutaneous continuous administration (osmotic pump); conditions: mice; for Tear fluid: AUC of secreted amount
Method: as §1, §2, §3, §4, §5

[4] = system: ornithine decarboxylase (ODC) activity of extra-orbital lacrimal gland; test: Ornithine decarboxylase activity of extra-orbital lacrimal gland after subcutaneous bolus administration; conditions: mice
Method: (§7) Male Balb/c mice were used in the test. […] Also, the growth acceleration action was measured 6 hours after the administration. […] Also, the growth acceleration action was measured 6 hours after the administration. […] Thus, it can be easily analogized that the ODC activity becomes a useful index of cell growth and function of the exocrine gland. Accordingly, the ability of each drug to activate glandular tissue was evaluated by measuring ODC activity of parotid salivary gland and extra-orbital lacrimal gland. The amount of ^14CO2 formed from L-^14C-ornithine was used as the index of ODC activity. A mouse anesthetized with diethyl ether was sacrificed by bleeding, and left and right parotid salivary glands and extra-orbital lacrimal glands were isolated. After removing the attached connective tissue and fat, the isolated glandular tissues homogenized in 1.5 ml of a homogenate buffer (25 mM Tris-HCl buffer (pH 7.4) containing 0.1 mM ethylenediaminetetraacetic acid, 0.4 mM pyridoxal phosphate, 5 mM dithiothreitol and 0.1% Brij 35®) using a Potter type homogenizer and then centrifuged at 4° C., 15,000 g for 30 minutes, and the supernatant was used as the enzyme fraction. […] The ^14CO2 generated by the reaction was captured by 150 μl of 1 N NaOH soaked in a glass filter. Radioactivity of the ^14CO2 captured on the glass filter was detected using a liquid scintillation counter. The enzyme activity (pmol ^14CO2/mg protein/hour) was calculated from the measured results. All of the test results were expressed as fold increases of the reactions of the drug-administered group versus those of the vehicle-administered group, and comparison between the drug-administered groups and the vehicle-administered group was carried out using Dunnett's t-test. P<0.05 was considered significant. Results

[5] = system: ornithine decarboxylase (ODC) activity of parotid salivary gland; test: Ornithine decarboxylase activity of parotid salivary gland after subcutaneous bolus administration; conditions: mice
Method: as §7

[6] = system: salivary gland; test: Salivary fluid secretion after subcutaneous bolus administration; conditions: mice; for dose at which statistically significant acceleration of salivary fluid secretion was attained / time after administration at which secretion amount of salivary and tear fluid reached maximum: s.c. bolus; for time after administration at which secretion amount of salivary and tear fluid reached maximum: every dose
Method: as §1, §6
as §6, with “Pilocarpine was dissolved” for “The compound A was dissolved”, “concentration of 0.03, 0.1, 0.3, 1, 3 or 10 mg/5 ml, or cevimeline to a concentration of 0.3, 1, 3,” for “concentration of 1, 3,”, “administration of pilocarpine or cevimeline and 10,” for “administration of compound A and 10,”
as §4, §5

[7] = s.c. osmotic pump 0.63 mg (0.025 mg/h)
[8] = s.c. osmotic pump 1.25 mg (0.05 mg/h)
[9] = s.c. osmotic pump 2.5 mg (0.1 mg/h)
[10] = s.c. osmotic pump 5 mg (0.2 mg/h)
[11] = s.c. osmotic pump 10 mg (0.4 mg/h)
[12] = s.c. bolus 1 mg/kg, 10 minutes after administration
[13] = s.c. bolus 3 mg/kg, 10 minutes after administration
[14] = s.c. bolus 10 mg/kg, 10 minutes after administration
[15] = 10 minutes after administration
[16] = s.c. bolus 10 mg/kg, ODC activity 6 hours after administration
[17] = s.c. bolus 30 mg/kg, ODC activity 6 hours after administration
[18] = s.c. bolus 100 mg/kg, ODC activity 6 hours after administration
[19] = s.c. osmotic pump 0.16 mg (0.0064 mg/h)
[20] = s.c. osmotic pump 0.31 mg (0.0124 mg/h)
[21] = s.c. osmotic pump 0.63 mg (0.0252 mg/h)
[22] = s.c. osmotic pump 1.25 (0.05 mg/h)
[23] = s.c. bolus 0.3 mg/kg, 10 minutes after administration (Table 4)
[24] = s.c. bolus 1 mg/kg, 10 minutes after administration (Table 4)
[25] = s.c. bolus 3 mg/kg, 10 minutes after administration (Table 4)
[26] = s.c. bolus 10 mg/kg, 10 minutes after administration (Table 4)
[27] = s.c. bolus 10 mg/kg, ODC activity 6 hours after administration (Table 4)
[28] = s.c. bolus 30 mg/kg, ODC activity 6 hours after administration (Table 4)
[29] = s.c. bolus 100 mg/kg, ODC activity 6 hours after administration (Table 4)

In the case of `C=C1CC2(CCN(C)CC2)O[C@H]1C` [compound A, (−)-(S)-2,8-dimethyl-3-methylene-1-oxa-8-azaspiro[4.5]decane], the “dose at which salivary fluid secretion acceleration action reached maximum” value ([1]; s.c. continuous administration) is reported as 5 mg, the “time after osmotic pump implantation at which secreted amount of tear and salivary fluid became maximum” value ([1]; s.c. continuous administration) is reported as 10 h and the “time after osmotic pump implantation at which secreted amount of tear and salivary fluid started to increase” value ([1]; s.c. continuous administration) is reported as 4 h. The “time after which secretion acceleration action almost disappeared” value ([1]; s.c. continuous administration) was 32 h, the “time until which increased secretion of tear and salivary fluid continued” value ([1]; s.c. continuous administration) was 26 h and the “dose showing statistically significant salivary fluid secretion acceleration” value ([1]; s.c. continuous administration) was ≥ 2.5 mg. The Salivary fluid [1, 7] was 0.84 ± 0.11 fold increase vs. the vehicle group, the Salivary fluid [1, 8] was 1.4 ± 0.11 fold increase vs. the vehicle group and the Salivary fluid [1, 9] was 2.1 ± 0.13 fold increase vs. the vehicle group. The Salivary fluid [1, 10] was 2.8 ± 0.21 fold increase vs. the vehicle group, the Salivary fluid [1, 11] was 3.4 ± 0.35 fold increase vs. the vehicle group and the Tear fluid [2, 12] was 1.3 ± 0.11 fold increase vs. the vehicle group. For the same compound, the Tear fluid [2, 13] was 1.4 ± 0.15 fold increase vs. the vehicle group, the Tear fluid [2, 14] was 2.2 ± 0.25 fold increase vs. the vehicle group and the “dose at which statistically significant acceleration of tear fluid secretion was attained” value [2, 15] was 10 mg/kg. The “dose at which tear fluid secretion acceleration action reached maximum” value ([3]; s.c. continuous administration) was 5 mg, the “dose showing statistically significant tear fluid secretion acceleration” value ([3]; s.c. continuous administration, cumulative quantity vs vehicle group) was ≥ 2.5 mg and the Tear fluid [3, 7] was 1.3 ± 0.11 fold increase vs. the vehicle group. For the same compound, the Tear fluid [3, 8] was 1.3 ± 0.011 fold increase vs. the vehicle group, the Tear fluid [3, 9] was 1.9 ± 0.10 fold increase vs. the vehicle group and the Tear fluid [3, 10] was 2.3 ± 0.08 fold increase vs. the vehicle group. For the same compound, the Tear fluid [3, 11] was 1.6 ± 0.08 fold increase vs. the vehicle group, the “Glandular cell growth Lacrimal gland” value [4, 16] was 0.99 ± 0.24 fold increase vs. the vehicle group and the “Glandular cell growth Lacrimal gland” value [4, 17] was 2.2 ± 0.43 fold increase vs. the vehicle group. The “Glandular cell growth Lacrimal gland” value [4, 18] was 2.3 ± 0.07 fold increase vs. the vehicle group, the “Glandular cell growth Salivary gland” value [5, 16] was 0.71 ± 0.05 fold increase vs. the vehicle group and the “Glandular cell growth Salivary gland” value [5, 17] was 0.72 ± 0.11 fold increase vs. the vehicle group. The “Glandular cell growth Salivary gland” value [5, 18] was 2.8 ± 0.72 fold increase vs. the vehicle group, the Salivary fluid [6, 12] was 1.5 ± 0.10 fold increase vs. the vehicle group and the Salivary fluid [6, 13] was 1.8 ± 0.13 fold increase vs. the vehicle group. The Salivary fluid [6, 14] was 3.3 ± 1.1 fold increase vs. the vehicle group, the “dose at which statistically significant acceleration of salivary fluid secretion was attained” value [6, 15] was 10 mg/kg and the “time after administration at which secretion amount of salivary and tear fluid reached maximum” value [6] was 10 min.

In the case of `CC1OC2(CS1)CN1CCC2CC1` (centres unmarked) [cevimeline], the “dose showing statistically significant salivary fluid secretion acceleration” value ([1]; s.c. continuous administration) is reported as 0.63 mg, the Salivary fluid [1, 19] is reported as 0.98 ± 0.10 fold increase vs. the solvent group and the Salivary fluid [1, 20] is reported as 1.0 ± 0.12 fold increase vs. the solvent group. For the same compound, the Salivary fluid [1, 21] was 1.5 ± 0.11 fold increase vs. the solvent group, the Salivary fluid [1, 22] was 1.7 ± 0.17 fold increase vs. the solvent group and the Tear fluid [2, 23] was 1.1 ± 0.14 fold increase vs. the vehicle group. For the same compound, the Tear fluid [2, 24] was 1.1 ± 0.14 fold increase vs. the vehicle group, the Tear fluid [2, 25] was 1.1 ± 0.16 fold increase vs. the vehicle group and the Tear fluid [2, 26] was 3.6 ± 0.88 fold increase vs. the vehicle group. The “dose at which statistically significant acceleration of tear fluid secretion was attained” value [2, 15] was 10 mg/kg, the Tear fluid [3, 19] was 1.3 ± 0.05 fold increase vs. the solvent group and the Tear fluid [3, 20] was 1.1 ± 0.09 fold increase vs. the solvent group. The Tear fluid [3, 21] was 1.4 ± 0.18 fold increase vs. the solvent group, the Tear fluid [3, 22] was 1.3 ± 0.04 fold increase vs. the solvent group and the “Glandular cell growth Lacrimal gland” value [4, 27] was 1.2 ± 0.90 fold increase vs. the vehicle group. The “Glandular cell growth Lacrimal gland” value [4, 28] was 1.2 ± 0.52 fold increase vs. the vehicle group, the “Glandular cell growth Lacrimal gland” value [4, 29] was 1.7 ± 0.79 fold increase vs. the vehicle group and the “Glandular cell growth Salivary gland” value [5, 27] was 1.7 ± 065 fold increase vs. the vehicle group. For the same compound, the “Glandular cell growth Salivary gland” value [5, 28] was 1.1 ± 0.33 fold increase vs. the vehicle group, the “Glandular cell growth Salivary gland” value [5, 29] was 1.1 ± 0.33 fold increase vs. the vehicle group and the Salivary fluid [6, 23] was 1.2 ± 0.13 fold increase vs. the vehicle group. For the same compound, the Salivary fluid [6, 24] was 2.0 ± 0.22 fold increase vs. the vehicle group, the Salivary fluid [6, 25] was 2.1 ± 0.42 fold increase vs. the vehicle group and the Salivary fluid [6, 26] was 3.1 ± 0.50 fold increase vs. the vehicle group. For the same compound, the “dose at which statistically significant acceleration of salivary fluid secretion was attained” value [6, 15] was 3 mg/kg and the “time after administration at which secretion amount of salivary and tear fluid reached maximum” value [6] was 10 min.
